Laboratory results: ChEMBL document CHEMBL1141759, “Steroids from the Antarctic octocoral Anthomastus bathyproctus” (2005)

Legend:
Type in all cases: functional
A549 = test: Cytotoxicity against human A549 cells by SRB assay
MDA-MB-231 = test: Cytotoxicity against human MDA-MB-231 cells by SRB assay
HT-29 = test: Cytotoxicity against human HT-29 cells by SRB assay

## COC(=O)C(C)/C=C/[C@@H](C)[C@H]1CC[C@H]2[C@@H]3CCC4=CC(=O)C=C[C@]4(C)[C@H]3CC[C@]12C (stereo partly drawn)
A549
  GI50: 21.4 µM
MDA-MB-231
  GI50: 22.4 µM
HT-29
  GI50: 20.2 µM

## COC(=O)/C(C)=C/CC[C@@H](C)[C@H]1CC[C@H]2[C@@H]3CCC4=CC(=O)C=C[C@]4(C)[C@H]3CC[C@]12C
A549
  GI50: 16.5 µM
MDA-MB-231
  GI50: 21.2 µM
HT-29
  GI50: 15.3 µM

## COC(=O)/C(C)=C/C[C@@H](OC(C)=O)[C@@H](C)[C@H]1CC[C@H]2[C@@H]3CCC4=CC(=O)C=C[C@]4(C)[C@H]3CC[C@]12C
MDA-MB-231
  GI50: 18.4 µM

## C=C(CC[C@](C)(O)[C@H]1CC[C@H]2[C@@H]3CCC4=CC(=O)C=C[C@]4(C)[C@H]3CC[C@@]21C)C(C)C
A549
  GI50: 23.4 µM
